Tests used:
[1] = Comparison of products: duration of disinfectant effectiveness
[2] = Comparison of products: compatibility with detergents; type: physicochemical
[3] = Comparison of products: filmogenic properties; type: physicochemical
[4] = Comparison of products: stability; type: physicochemical
[5] = system: people; assay: Comparison of products: application in the presence of people; set-up: species or system human
[6] = system: people; assay: Comparison of products: handling hazards (adverse effects), harm to people; set-up: species or system human
[7] = Comparison of products: corrosivity (pH); type: physicochemical
[8] = room temperature; cited from earlier work

Structure (SMILES)	Duration of effectiveness [1] [days]	Compatibility with detergents [2]	Filmogenic properties [3]	Stability [4]	Application in the presence of people [5]	Handling hazards (adverse effects) ([6]; contact with skin and eyes)	Handling hazards (adverse effects) ([6]; exposure to high concentrations)	Corrosivity: irritancy [7]	Corrosivity: pH [7]	concentration with bactericidal activity [8] [%]	concentration with bacteriostatic activity [8] [%]
OCl [Sodium hypochlorite]	1	Not compatible. Sodium hypochlorite	No	Not stable, chlorine solutions	No and ventilation recommended	Liquid chlorine causes severe burns	cause nausea and vomiting.	irritant	~11		
OO [hydrogen peroxide]										6	3

— patent publication US20240099301A1, “Disinfecting and Sanitizing Composition, Method for Preparing the Composition and Use of Same” (SOCIEDAD QUÍMICA ECOLÓGICA SPA, priority 2021, published 2024)
